# Literature values as cited in patent US6514527B1, “Compositions comprising a mixture of bioflavonols” (Merck Patentgesellschaft, priority 1998, dated 2003).
# Conditions: orally administered
row,SMILES,time to reach peak
1,O=c1c(O[C@@H]2O[C@H](CO)[C@@H](O)[C@H](O)[C@H]2O)c(-c2ccc(O)c(O)c2)oc2cc(O)cc(O)c12 [isoquercetin],about 0.70 h
2,O=c1c(O)c(-c2ccc(O)c(O)c2)oc2cc(O)cc(O)c12 [quercetin],about 3 h
